How the values were obtained:
[1] = tested on: FcγRIIa transgenic mice with CIA; experiment: Collagen-induced arthritis (CIA) in FcγRIIa transgenic mice, arthritis index; format: in vivo, mouse; conditions: FIG. 14
Excerpt: In transgenic mouse models of the present invention the following mice strains were used DBA/1 (H-2^q) males at 8-12 weeks old, C57BL/6 (H-2^b) and (C57BL/6×SJ (H-2^b/s) males or females at 8-15 weeks old, and transgenic mice expressing the FcγRIIa human transgene on platelets, neutrophils and macrophages at physiological levels, (as described in McKenzie et al. 1999). Transgenic males or females at 12-15 weeks old were used in collagen-induced arthritis (CIA) experiments, and >25 weeks old for the spontaneous autoimmune disease studies. All mice were bred and kept in clean conditions and were fed a standard diet and water ad libitum. The mouse is characterised in the published paper by McKenzie et al. 1999, listed in references.
Complete Freund's Adjuvant (CFA) was prepared by mixing 100 mg heat-killed M tuberculosis H37 Ra (Difco Laboratories, Detroit, Mich.) ground in 20 ml Incomplete Freund's Adjuvant (Difco Laboratories, Detroit, Mich.). […]
Mice were examined 2-3 times per week from day 14 onwards. […] The score of each mouse was calculated for the four limbs (maximum total score of 12 for each mouse) (Campbell et al. 1997). […]
The score for each mouse was calculated by adding the scores of the four limbs (maximum score of 12 for each mouse) (Campbell et al. 1997). […]

[2] = tested on: non transgenic DBA/1 mice with CIA; conditions: Neurath, Hildner et al. 1999; cited from earlier work

SMILES: CN(Cc1cnc2nc(N)nc(N)c2n1)c1ccc(C(=O)N[C@@H](CCC(=O)O)C(=O)O)cc1 [methotrexate]
- delay of CIA ([1]; 1 mg/kg for 14 days from second collagen injection, day 21-35): effective in delaying CIA
- disease after treatment ceased ([1]; as immune function returned to normal after treatment ceased): increased in severity
- delay of CIA in DBA/1 mice [2]: effective in delaying CIA

Reference: US7351875B2, “FcγRIIa transgenic animal model for autoimmune disease” (Trillium Therapeutics, Inc., priority 2002, dated 2008)
